Assays:
[1] = target: T1, human ERα binding to flcERE (Homo sapiens, UniProt P03372); test: FAMA: inhibition of ERα binding to flcERE; details: FAMA, binding to HRE, 5 concentrations 0.5-10 μM, sequential method; read-out: IC50 ERα
T1 construct: Full-length FLAG-tagged human ERα was expressed and purified as described previously (27); FLAG; made in house
T1 sequence (P03372 1-595): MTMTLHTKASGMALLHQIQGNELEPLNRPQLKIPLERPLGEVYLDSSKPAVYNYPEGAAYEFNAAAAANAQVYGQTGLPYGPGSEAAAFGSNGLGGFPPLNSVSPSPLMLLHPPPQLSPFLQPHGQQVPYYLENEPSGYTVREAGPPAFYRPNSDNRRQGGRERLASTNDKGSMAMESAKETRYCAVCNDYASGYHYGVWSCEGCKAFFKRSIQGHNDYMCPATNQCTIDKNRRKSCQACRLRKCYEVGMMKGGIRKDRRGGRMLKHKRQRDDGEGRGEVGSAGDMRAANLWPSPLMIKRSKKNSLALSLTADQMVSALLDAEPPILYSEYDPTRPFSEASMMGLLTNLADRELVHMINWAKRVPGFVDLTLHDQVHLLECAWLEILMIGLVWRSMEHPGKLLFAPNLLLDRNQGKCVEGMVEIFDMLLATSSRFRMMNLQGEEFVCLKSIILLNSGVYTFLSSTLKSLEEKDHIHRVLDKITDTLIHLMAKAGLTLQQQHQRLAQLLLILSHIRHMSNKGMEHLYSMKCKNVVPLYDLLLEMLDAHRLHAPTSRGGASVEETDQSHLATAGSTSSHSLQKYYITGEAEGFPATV
Procedure: Prior to screening, the 10 mM library stocks were diluted to produce replica libraries in 384-well plates containing each small molecule at 0.25 mM (in DMSO). In our initial studies we were concerned that forming the flcERE-ERα complex first and then adding the candidate small molecule inhibitors would miss small molecules that bind at the interface. We therefore screened using the “sequential” method in which the candidate small molecules were first incubated with ERα and followed by addition of the flcERE. The assay for binding of ERα to the flcERE is a modification of our earlier assay (27). Assays were carried out at room temperature in black wall 384-well microplates (Greiner/Bio-One) in a total volume of 10 μl in buffer containing 20 mM Tris pH 7.5, 10% glycerol, 0.2 mM EDTA, 2 mM DTT, 100 mM KCl, 0.5 ng/μl poly dl:dC, […] bovine serum albumin and 100 nM 17β-estradiol (E2). For high throughput screening, a master mix without ERα and probe was prepared at 4° C. The master mix was divided into 2 parts. ERα was added to one part to 5 nM in the final assays. 7 μl of the ERα-containing mix was then dispensed into each well of a 384-well plate on ice. 100 nl of the compounds being tested was then added using a pin-transporter (V & P Scientific, Inc, CA) to a final concentration of 2.5 μM. The samples were mixed using the pin-transporter and sedimented by centrifugation for 2 min. at 4° C. and incubated on ice for 10 min. The flcERE probe was added to the other aliquot of the mix to 1 nM. 3 μl of the mix containing the flcERE probe was added to each well containing ERα and the test compound. The samples were mixed using the pin-transporter, the plates were briefly centrifuged and incubated at room temperature for 10 min. and fluorescence anisotropy (FA) was measured using a BMG PheraStar (BMG Labtech) microplate reader (module: 485 520) with excitation at 485λ and emission at 520λ. To identify small molecules that were highly fluorescent, or quench fluorescence, fluorescence intensity was also measured.
(§1) Dose response curves for selected compounds were carried out as described for the HTS screen except that each well contained the indicated concentration of test compound. PR assays were carried out in the same buffer used for ERα assays and contained 1 nM flcPRE and 11 nM PR-B and 100 nM progesterone. The buffer used for AR was similar but also contained 5 μM ZnCl, 5 mM NaF, 0.6 μM CHAPS and 100 nM dihydrotestosterone. AR assays contained 1 nM flcARE and 50 nM full-length wild-type AR.

[2] = target: T2, human androgen receptor (AR) binding to flARE (Homo sapiens, UniProt P10275); test: FAMA: inhibition of AR binding to flcARE; details: binding to HRE, 5 concentrations 0.5-10 μM, sequential method
T2 construct: AR assays contained 1 nM flcARE and 50 nM full-length wild-type AR; FLAG; made in house
T2 sequence (P10275 1-920): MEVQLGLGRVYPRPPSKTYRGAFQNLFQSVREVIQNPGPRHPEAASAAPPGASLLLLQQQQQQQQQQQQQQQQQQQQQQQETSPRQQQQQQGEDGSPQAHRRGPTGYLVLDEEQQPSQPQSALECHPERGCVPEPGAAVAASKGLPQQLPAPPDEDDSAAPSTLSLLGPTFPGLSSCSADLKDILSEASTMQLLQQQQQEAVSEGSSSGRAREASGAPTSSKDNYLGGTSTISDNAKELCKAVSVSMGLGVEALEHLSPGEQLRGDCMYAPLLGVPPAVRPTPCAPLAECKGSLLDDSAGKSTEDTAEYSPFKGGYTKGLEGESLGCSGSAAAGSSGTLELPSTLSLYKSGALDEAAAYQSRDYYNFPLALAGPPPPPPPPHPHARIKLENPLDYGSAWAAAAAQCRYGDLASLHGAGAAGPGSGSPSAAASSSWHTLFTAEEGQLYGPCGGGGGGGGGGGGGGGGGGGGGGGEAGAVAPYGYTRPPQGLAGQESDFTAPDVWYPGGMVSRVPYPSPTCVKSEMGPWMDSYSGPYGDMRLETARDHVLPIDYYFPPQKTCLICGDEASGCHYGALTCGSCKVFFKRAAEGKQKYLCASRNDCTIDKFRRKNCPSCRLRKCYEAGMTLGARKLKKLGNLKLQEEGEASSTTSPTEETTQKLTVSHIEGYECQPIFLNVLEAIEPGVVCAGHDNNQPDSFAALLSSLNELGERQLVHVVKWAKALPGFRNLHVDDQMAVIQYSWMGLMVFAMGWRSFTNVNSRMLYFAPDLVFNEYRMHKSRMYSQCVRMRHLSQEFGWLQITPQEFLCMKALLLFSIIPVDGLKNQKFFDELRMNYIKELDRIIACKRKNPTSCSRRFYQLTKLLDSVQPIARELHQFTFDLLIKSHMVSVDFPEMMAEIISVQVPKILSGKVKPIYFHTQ
Procedure: as §1
(§2) Specificity was evaluated in dose-response studies by quantitative FAMA using purified full-length human PR binding to a fluorescein-labeled progesterone/glucocorticoid response element (flPRE) and full-length human androgen receptor (AR) binding to a fluorescein-labeled androgen response element (flARE).

[3] = target: T3, human PR-B binding to flPRE (Homo sapiens, UniProt P06401); test: FAMA: inhibition of PR binding to flcPRE; details: binding to HRE, 5 concentrations 0.5-10 μM, sequential method
T3 construct: FLAG; made in house
T3 sequence (P06401 1-933): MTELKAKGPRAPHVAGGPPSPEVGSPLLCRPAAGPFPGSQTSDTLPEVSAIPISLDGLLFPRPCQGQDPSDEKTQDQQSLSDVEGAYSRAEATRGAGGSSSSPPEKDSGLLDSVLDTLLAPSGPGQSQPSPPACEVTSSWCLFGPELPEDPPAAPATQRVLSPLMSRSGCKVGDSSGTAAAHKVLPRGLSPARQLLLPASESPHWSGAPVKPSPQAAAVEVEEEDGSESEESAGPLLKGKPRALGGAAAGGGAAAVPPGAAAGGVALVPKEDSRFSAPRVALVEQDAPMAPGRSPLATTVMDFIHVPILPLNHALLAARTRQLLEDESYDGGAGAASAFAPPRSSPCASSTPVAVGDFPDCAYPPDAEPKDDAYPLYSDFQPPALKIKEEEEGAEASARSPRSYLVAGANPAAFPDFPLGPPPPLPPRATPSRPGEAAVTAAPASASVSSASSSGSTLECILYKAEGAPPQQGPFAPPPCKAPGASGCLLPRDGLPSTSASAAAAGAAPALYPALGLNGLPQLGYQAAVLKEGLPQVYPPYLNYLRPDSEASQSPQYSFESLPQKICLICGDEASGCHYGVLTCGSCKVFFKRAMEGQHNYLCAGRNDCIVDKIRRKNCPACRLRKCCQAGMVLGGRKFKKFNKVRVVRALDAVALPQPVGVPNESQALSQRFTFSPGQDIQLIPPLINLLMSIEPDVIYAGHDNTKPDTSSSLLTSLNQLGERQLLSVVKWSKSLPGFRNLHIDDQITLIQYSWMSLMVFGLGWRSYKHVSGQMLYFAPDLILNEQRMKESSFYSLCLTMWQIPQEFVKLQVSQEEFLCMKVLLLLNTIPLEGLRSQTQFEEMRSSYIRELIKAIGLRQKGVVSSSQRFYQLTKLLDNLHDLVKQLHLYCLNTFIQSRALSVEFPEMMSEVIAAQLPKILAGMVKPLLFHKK
Procedure: as §1, §2

ERα = target: T4, ERα (Homo sapiens, UniProt P03372); test: (ERE)3-luciferase reporter gene assay in T47D-KBluc cells; assay type: cell-based; set-up: Using a stably transfected breast cancer cell line that expresses endogenous ERα; endogenous in cells; host or cells: T47D-KBluc
T4 sequence (P03372 1-595): T1 sequence (P03372 1-595)
Procedure: The T47D-KBluc cells stably express an (ERE)3-luciferase reporter gene (38). […] Four days before E2 induction, the cells were switched to the above medium, with 10% 2× charcoal-dextran-treated calf serum instead of FBS. 200,000 cells/well were transferred to each well of a 24-well plate. After 24 h the indicated concentrations of the test compounds were added in DMSO and E2 was added to 20 pM. After 24 h cells were washed once in PBS, and 150 μl 1× Passive Lysis Buffer (Promega, Madison Wis.) was used to lyse the cells. Luciferase activity was determined using firefly luciferase reagents from Promega (Madison, Wis.).
Reporter Gene Assays. […] AR was assayed in stably transfected HeLa cells and GR was assayed in stably transfected T47D cells maintained as described above. Four days before each experiment the cells were switched to medium containing CD-treated serum as described above. The HeLaAR cells were plated at 100,000 cells/well and the T47D/A1-2 and T47D-KBluc cells were plated at 200,000 cells/well in 1 ml of their respective media in 24-well plates. After 24 hours the indicated concentrations of E2, dihydrotestosterone (DHT) or dexamethasone (Dex) and DMSO vehicle, with or without TPSF, were added to each well. After 24 hours, the cells were washed once in phosphate buffered saline and lysed using 100 μl of 1× Passive Lysis Buffer (Promega, Madison Wis.). Luciferase activity was determined using BrightGlo firefly luciferase reagent from Promega (Madison, Wis.).

Row | Compound | IC50 [1] [µM] | IC50 [2] [µM] | IC50 [3] [µM] | potency as ERα inhibitor relative to TPSF (less potent) (ERα) [fold] | IC50 (ERα; T47D (ERE)3-Luc cells, 24 h, FIG. 13, E2 concentration for 99676 not stated, read-out: IC50 for inhibition of ERα-mediated gene expression) [µM]
1 | CCCCCN(CCCCC)CCC(O)c1cccc2ccccc12 (centres unmarked) [Compound 9671] | > 10 | > 10 | > 10 |  | 
2 | CC(C)CCOC(=S)S [Compound 4864] | 8 | 6.5 | 8.8 |  | 
3 | CC1=NNC(=S)NCCCN2CCN(CCCNC(=S)NN=C(C)C=NNC(=S)NCCCN3CCN(CCCNC(=S)NN=C1)CC3)CC2 [Compound 91767] | 8 | > 10 | > 10 |  | 
4 | CCN(CC)CCOc1ccc(Cl)cc1Cc1ccccc1 [Compound 9548] | 1 | 4 | 5 |  | 
5 | O=C1C(CO)C(CO)C(CO)C1CO (centres unmarked) [Compound 9064] | > 10 | > 10 | > 10 |  | 
6 | [Cu].c1ccc2c(c1)C1=NC2=NC2=NC(=NC3=NC(=NC4=NC(=N1)c1ccccc14)c1ccccc13)c1ccccc12 [Compound 43628] | > 10 | > 10 | > 10 |  | 
7 | CN(C)c1ncnc2c1cnn2-c1ccc(Cl)cc1 [Compound 1445] | 0.6 | 0.7 | 1.2 |  | 
8 | Cn1c(=S)c2[nH]c(SCCCc3ccccc3)nc2n(C)c1=O [Compound 99676] |  |  |  | ~13 | 9
9 | O=C1NC(=S)NC(=O)C1=Cc1cccc2cc3ccccc3cc12 [Compound 90737] | 10 | > 10 | > 10 |  | 
10 | O=C(OC1C2COC(O2)C(OC(=O)c2ccccc2)C1OC(=O)c1ccccc1)c1ccccc1 (centres unmarked) [Compound 1387] | 4.5 | 4.8 | 6.5 |  | 
11 | Cc1ccccc1NCC(C)O (centres unmarked) [Compound 7484] | 9.5 | > 10 | > 10 |  | 
12 | CCNc1ccc(-c2ccc(NCC)cc2)cc1 [Compound 2674] | 5.5 | 5.8 | 6.2 |  | 
13 | C=CCOC(=O)c1ccc(Cl)cc1 [Compound 8216] | 9 | > 10 | > 10 |  | 
14 | Brc1cccs1 [Compound 4456] | 7.5 | > 10 | > 10 |  | 
